Results on four molecules are retold here after patent US20210260141A1, “MSC- AND EXOSOME-BASED IMMUNOTHERAPY” (EXOSTEM BIOTEC LTD., priority 2018, published 2021).

Assay type in all cases: cell-based
The test system of one data set is 3′ UTR of PD-L1. As to the kind of experiment: PD-L1 3′ UTR luciferase reporter in GSCs cocultured with MSCs or treated with their exosomes. To be noted: pre-miR expressed in CH-, AD- and UC-MSCs, trans-well coculture with GSCs. A general note: In a reporter assay the amount or activity of a reporter protein is the signal.
For a further data set, the system named is glioma stem cells (GSCs). As to the kind of experiment: self-renewal of GSCs (secondary neurosphere formation) after coculture with MSCs or addition of their exosomes. The settings on record: trans-well coculture.
The test system of another data set is PD-1 3′ UTR. The data set is described as follows: PD-1 3′ UTR luciferase reporter in HEK293 cells. The settings on record: miR transfected in CH-MSCs; same whether cocultured or exosomes added. How it is done:
PD-L1 is only half of the immune surveillance axis, its receptor PD-1 is expressed on immune cells and is required for cancer cell immune inhibition. […] CH-MSCs were also transfected with miR-124, miR-34, miR-30b and a combination of all three and then PD-1 expression was assessed. […] The effect was the same whether cells were cocultured, or whether exosomes were added. miR-34 has already been reported to target PD-L1, thus this miR and miR-124 are both effective at targeting both sides of the PD-L1/PD-1 axis.

[1] abbreviates: miR expressed in CH- and UC-MSCs.

Consider “miR-29c: microRNA; pre-miR SEQ ID NO: 4, mature 5p SEQ ID NO: 5, 3p SEQ ID NO: 6 (ACCGAUUUCUCCUGGUGUUCAGAGUCUGUUUUUGUCUAGCACCAUUUGAAAUCGGUUA; expressed or natural sequence; listed as Homo sapiens)”, for which, in the data set with 3′ UTR of PD-L1, the “luciferase expression (PD-L1 reporter)” value was “decreased luciferase expression”. The figures for the “effect on self-renewal of GSCs” value in the data set with glioma stem cells (GSCs) (miR expressed in AD-MSCs) and in the data set on glioma stem cells (GSCs) (setting [1]) were “more pronounced effect” and “negligible effect”, respectively.
For the molecule “miR-30b: microRNA; pre-miR SEQ ID NO: 13, mature 5p SEQ ID NO: 14, 3p SEQ ID NO: 15 (UGUAAACAUCCUACACUCAGCUGUAAUACAUGGAUUGGCUGGGAGGUGGAUGUUUACUUC; expressed or natural sequence; listed as Homo sapiens)”, in the data set with PD-1 3′ UTR, the “effect on PD-1 reduction (luciferase reporter)” value is listed as “enhanced the PD-1 reduction”.
For “miR-378: microRNA; pre-miR SEQ ID NO: 32, mature 5p SEQ ID NO: 33, 3p SEQ ID NO: 34 (CUCCUGACUCCAGGUCCUGUGUGUUACCUAGAAAUAGCACUGGACUUGGAGUCAGAAGGC; expressed or natural sequence; listed as Homo sapiens)”, in the data set with 3′ UTR of PD-L1, the “luciferase expression (PD-L1 reporter)” value is given as “decreased luciferase expression”. Besides, the “effect on self-renewal of GSCs” value in the data set with glioma stem cells (GSCs) (miR expressed in AD-MSCs) is on record as “more pronounced effect”; in the data set with glioma stem cells (GSCs) (setting [1]) it was “negligible effect”.

B1: miR-34: microRNA; pre-miR SEQ ID NO: 10, mature 5p SEQ ID NO: 11, 3p SEQ ID NO: 12 (nucleic acid, listed as Homo sapiens)
chain: UGGCAGUGUCUUAGCUGGUUGUUGUGAGCAAUAGUAAGGAAGCAAUCAGCAAGUAUACUGCCCUA
modifications: expressed or natural sequence
Turning to B1, the “effect on PD-1 reduction (luciferase reporter)” value in the data set with PD-1 3′ UTR is “enhanced the PD-1 reduction”.
